Test system: THP-1
Experiment: Cytotoxicity against human THP-1 cells assessed as reduction in cell viability measured after 24 hrs by Celltiter-Glo assay
Assay type: functional, cell-based
Details: THP-1, 24 h

With CCN(CC)C(=S)SSC(=S)N(CC)CC the IC50 was 7 µM.

From ChEMBL document CHEMBL5365556 (ACS Med Chem Lett, 2023)
